Measurements: PMC13095408, “DBeQ derivative targets vacuolar protein sorting 4 functions in cancer cells and suppresses tumor growth in mice” (The Journal of Pharmacology and Experimental Therapeutics, 2025)

Assays:
[1] = test system: U2OS cells; assay: Immunoblot analysis of VPS4- and VCP-mediated pathways (autophagy, ER stress, ERAD); assay type: cell-based; conditions: 5 μM DBeQ, 0.6 μM CB-5083, 1 μM 4-107, complete media
Description: Whole-cell lysates were prepared in radio-immunoprecipitation buffer (25 mM Tris-HCl, pH 8.0, 150 mM NaCl, 1 mM EDTA, 1% v/v IGEPAL CA-630, 0.5% w/v sodium deoxycholate, and 1% v/v SDS) containing protease (1:250) and phosphatase inhibitor cocktails (1:100) then resolved via SDS-PAGE and probed with the indicated antibodies. Signals were acquired with the Odyssey CLx (LI-COR) for fluorescence or Odyssey XF (LI-COR) for chemiluminescence detection and visualized in Image Studio version 6 (LI-COR).
VPS4 is essential for autophagy and loss of VPS4 function inhibits autophagic flux ([Takahashi et al, 2018]; [Zhen et al, 2019]). Meanwhile, VCP is required for endoplasmic reticulum-associated degradation (ERAD; [Rabinovich et al, 2002]) where VCP inhibition results in the accumulation of ubiquitinated proteins and induction of ER stress ([Weihl et al, 2006]; [Bastola et al, 2016]).

[2] = target: T1, recombinant human VCP (Rattus norvegicus, UniProt P46462); assay: VCP ATPase activity, EnzChek Phosphate assay; assay type: biochemical; conditions: screened at 5 µM; mean ± S.D., Supplemental Table 2
T1 construct: His (N); host or cells: Escherichia coli BL21(DE3)
T1 sequence (P46462 2-806 limits assumed): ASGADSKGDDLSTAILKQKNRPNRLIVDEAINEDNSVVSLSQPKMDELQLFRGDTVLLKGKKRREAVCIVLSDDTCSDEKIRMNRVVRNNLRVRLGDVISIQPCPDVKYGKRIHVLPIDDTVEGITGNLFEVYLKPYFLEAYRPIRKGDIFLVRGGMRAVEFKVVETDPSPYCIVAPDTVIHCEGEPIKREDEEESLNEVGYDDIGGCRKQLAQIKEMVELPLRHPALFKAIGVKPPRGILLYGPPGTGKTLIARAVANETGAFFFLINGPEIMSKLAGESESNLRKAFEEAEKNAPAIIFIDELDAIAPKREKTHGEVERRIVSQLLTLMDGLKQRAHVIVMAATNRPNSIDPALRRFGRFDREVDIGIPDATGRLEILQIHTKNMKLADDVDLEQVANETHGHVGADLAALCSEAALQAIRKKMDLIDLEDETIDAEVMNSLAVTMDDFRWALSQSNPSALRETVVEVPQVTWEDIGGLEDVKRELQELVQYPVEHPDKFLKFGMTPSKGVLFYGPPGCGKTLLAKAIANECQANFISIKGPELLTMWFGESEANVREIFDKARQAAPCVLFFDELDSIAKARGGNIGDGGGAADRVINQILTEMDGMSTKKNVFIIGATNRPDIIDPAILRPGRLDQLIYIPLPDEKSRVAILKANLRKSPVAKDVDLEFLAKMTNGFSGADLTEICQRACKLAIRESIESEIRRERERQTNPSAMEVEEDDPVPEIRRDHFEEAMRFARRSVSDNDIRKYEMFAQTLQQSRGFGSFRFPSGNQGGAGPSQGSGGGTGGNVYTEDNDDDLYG
Description: (§1) VPS4B and VCP ATPase activities were measured using the EnzChek Phosphate assay for the quantification of released phosphate. Assay buffers were based on literature precedents ([Cupido et al, 2019], [2021]) as follows: VPS4B buffer (20 mM HEPES-KOH, pH 7.4, 25 mM KOAc, 2 mM MgCl2, 5 mM (NH4)2SO4, 0.5 mM CaCl2, 2.5 mM DTT, 0.1 mg/mL BSA, 0.005% v/v Triton X-100), VCP buffer (20 mM HEPES-NaOH, pH 7.4, 20 mM NaCl, 10 mM MgCl2, 5 mM (NH4)2SO4, 0.5 mM CaCl2, 2.5 mM DTT, 0.1 mg/mL BSA, 0.005% v/v Triton X-100). In black clear-bottom 384-well plates, 22.5 μL of 5% DMSO or 40× test compounds diluted in the respective assay buffer was added to each well. ATPases were diluted to 1 μM in the respective buffers containing 2× EnzChek Phosphate assay coupling reagents of 400 μM MESG and 2 U of PNP, then 25 μL was added to each well. Plates were mixed at 1000 rpm for 30 minutes at RT while being protected from light. The reaction was initiated by adding 2.5 μL of 20 mM MgATP or water followed by mixing at 1200 rpm for 30 seconds at RT. Plates were measured at 360 nm using a CLARIOstar plate reader (BMG LABTECH) for 20 minutes at 37 °C. ATPase activity was calculated as the amount of phosphate released over a 5-minute interval under linear initial velocity conditions. The remaining ATPase activity was calculated by normalizing compound-treated activity values to the DMSO control. IC50 was calculated by fitting normalized values to a sigmoidal dose-response curve with Hill slope = −1 using Graph Pad Prism 10.0.
(§2) To identify VPS4i, we developed enzyme- and cell-based VPS4 functional assays to serve as VPS4i-screening platforms. For the enzyme-based assay, we used the colorimetric EnzChek Phosphate assay that detects free phosphate with the advantage of continuous measurement of ATP hydrolysis over time. […] Due to the high sequence and structural similarity of AAA-ATPases, we also established a VCP ATPase assay to evaluate hit selectivity. […] For the cell-based assay, our approach was based on how VPS4 inhibition causes the accumulation of ESCRT-III ([Babst et al, 1998]; [Katoh et al, 2003]). We used an N-terminal GFP-tagged CHMP4B reporter system because it is the most abundant ESCRT-III subunit ([Katoh et al, 2004]; [Teis et al, 2008]). Our aim was to test compounds under short-term serum and amino acid starvation to stimulate ESCRT activity for easier detection of inhibitors ([Takahashi et al, 2018], [2019]). […] Overall, we established 2 systems for VPS4i screening, a VPS4B ATPase activity assay and a GFP-CHMP4B accumulation cell-based assay.

[3] = target: T2, recombinant human VCP; assay: VCP ATPase activity, EnzChek Phosphate assay; assay type: biochemical; conditions: 0.5 μM enzyme
T2 construct: His (N); host or cells: Escherichia coli BL21(DE3)
T2 sequence (P46462 2-806 limits assumed): as above
Description: as §1, §2

[4] = target: T3, VPS4B (Homo sapiens, UniProt O75351); assay: VPS4B cellular thermal shift assay (CETSA); assay type: cell-based; set-up: endogenous in cells; host or cells: U2OS; conditions: 5 μM DBeQ, 1 hour, starved U2OS cells
T3 sequence (O75351 1-444): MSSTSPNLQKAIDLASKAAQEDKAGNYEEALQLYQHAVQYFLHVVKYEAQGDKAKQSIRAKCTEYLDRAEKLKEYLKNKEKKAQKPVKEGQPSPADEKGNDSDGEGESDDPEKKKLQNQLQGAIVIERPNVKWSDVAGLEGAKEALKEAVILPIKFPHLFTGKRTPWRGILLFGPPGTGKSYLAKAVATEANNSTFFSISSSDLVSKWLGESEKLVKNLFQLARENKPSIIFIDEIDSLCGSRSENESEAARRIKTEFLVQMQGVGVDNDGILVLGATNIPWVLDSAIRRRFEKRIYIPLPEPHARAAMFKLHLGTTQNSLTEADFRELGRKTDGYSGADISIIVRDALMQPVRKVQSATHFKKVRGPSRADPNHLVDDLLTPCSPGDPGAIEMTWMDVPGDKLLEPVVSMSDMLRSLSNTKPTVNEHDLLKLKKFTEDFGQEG
Description: The VPS4B CETSA was performed as previously described with modification ([Jafari et al, 2014]). In 10-cm dishes, near-confluent U2OS cells were rinsed with 1× DPBS and treated with the indicated compounds in acclimatized SM for 1 hour at 37 °C (0.1% DMSO). Cells were trypsinized, pelleted at 300 × g for 5 minutes, and washed with 1× PBS. After repeat pelleting at 300 × g for 5 minutes, the cells were resuspended in 1× PBS with protease inhibitor cocktail (1:250) and aliquoted into PCR strips with 20 μL per tube. PCR strips for each treatment were heated on a temperature gradient for 3 minutes using a thermal cycler (Bio-Rad Laboratories), followed by incubation at RT for 3 minutes. […] To normalize protein loading for SDS-PAGE, the soluble protein concentration of each 37 °C sample was quantified via the Pierce BCA assay ([…]), and a volume equal to 10 μg of protein was used for all samples from the same treatment. […] Signals were acquired with the Odyssey CLx (LI-COR) and quantified via densitometry using Image Studio version 6 (LI-COR). The remaining VPS4B levels were calculated by first obtaining the ratio of VPS4B:ACTB band intensities of each sample and then normalizing these ratios to that of the respective 37 °C sample. […]

[5] = target: T3, VPS4B; assay: VPS4B ATPase activity, EnzChek Phosphate assay; assay type: biochemical; set-up: His tag (pET28a vector-encoded) (N); made in house; host or cells: Escherichia coli BL21(DE3)
In short: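 EnzChek phosphate release (MESG/PNP, 360 nm) with ATPases at 1 μM (diluted stock) in HEPES pH 7.4 buffers with MgCl2, CaCl2, DTT, BSA, Triton; 30 min compound preincubation at RT, started with MgATP, read 20 min at 37 °C. Activity from 5-min linear initial rate, normalized to DMSO; IC50 from Hill slope −1 fit.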

[6] = test system: GFP-CHMP4B-expressing U2OS cells; assay: GFP-CHMP4B accumulation cell-based assay (high-content microscopy)
In short: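 GFP-CHMP4B U2OS cells were cultured overnight, stained, then treated in SM with compounds (0.1% DMSO or 0.1% DMSO/0.1% ethanol vehicle final). High-content imaging used a 20× NA .70 objective at set intervals, ≥300 cells/well over 3 fields/well.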

[7] = test system: i-shVPS4A-expressing crVPS4B U2OS cells; assay: VPS4 synthetic cell death in i-shVPS4A-expressing crVPS4B cells (YOYO-3); assay type: cell-based; conditions: 1 μg/mL Dox; 20 μM z-VAD-fmk, 50 μM z-IETD-fmk
Description: To measure caspase activity, cells cultured in white opaque-bottom 384-well plates were incubated in the presence or absence of 1 μg/mL Dox for 24 hours. Caspase-Glo 8 or 3/7 reagent was then added 1:1 and allowed to incubate for 90 minutes at RT followed by luminescence measurement using the CLARIOstar microplate reader (BMG LABTECH). Signals had background luminescence subtracted and then normalized to the respective Dox-untreated i-GFP-expressing parental controls to obtain relative CASP8-like LETDase or CASP3/7-like DEVDase activities. For live-cell quantification, the cells seeded on black clear-bottom 96-well plates were incubated with the indicated compounds (0.1% to 0.3% DMSO final) in the presence of 100 nM YOYO-3, a cell-impermeant DNA-binding fluorescent probe that stains membrane integrity-impaired, dead cells. […] Phase and fluorescence images were obtained at the indicated intervals using the IncuCyte S3 Live-Cell Analysis System (Essen BioScience; 10× objective) and then analyzed using the Cell-by-Cell Analysis module (Essen BioScience; 9600-0031) of IncuCyte S3 Software (Essen BioScience; Version 2019B Rev2). To quantify the percentage of dead GFP-expressing cells, the GFP and YOYO-3 double-positive cell population was divided by the total GFP-positive cell population. […]

| Compound | ER stress (HSPA5, ATF4) [1] | autophagy (SQSTM1, LC3-II) [1] | VCP ATPase (% DMSO) [2] [% DMSO] | IC50 [3] [µM] | change of VPS4B thermal stability (Tagg) [4] | IC50 ([5]; 0.5 μM enzyme) [µM] | VPS4B ATPase (% DMSO) ([5]; remaining ATPase activity, screened at 5 μM, mean ± SD, Table 1) | VPS4B ATPase (% DMSO) ([5]; screened at 5 µM, mean ± S.D., Supplemental Table 2) | accumulation of GFP-CHMP4B ([6]; 2 and 5 μM DBeQ, starved cells, 2 hours) | GFP-CHMP4B (% 4-107) ([6]; screened at 1 µM, mean ± S.D., Supplemental Table 2) | GFP-CHMP4B (% 4-107) ([6]; screened at 1 μM, starvation media, 1 hour, foci intensity per cell normalized to 4-107, mean ± SD, Table 1) | rescue of VPS4 synthetic cell death [7] |
| --- | --- | --- | --- | --- | --- | --- | --- | --- | --- | --- | --- | --- |
| c1ccc(CNc2nc(NCc3ccccc3)c3ccccc3n2)cc1 [DBeQ] | mildly induced ER stress | time-dependently inhibited autophagy | 74.64 ± 6.01 | 15.9 ± 4.9 | subtle thermal destabilization of VPS4B that was not statistically significant | 3.9 ± 1.2 | 41.96 ± 7.53 | 41.96 ± 7.53 | dose-dependent accumulation of GFP-CHMP4B | 8.93 ± 3.51 | 8.93 ± 3.51 |  |
| z-IETD-fmk |  |  |  |  |  |  |  |  |  |  |  | partially rescued |
| z-VAD-fmk |  |  |  |  |  |  |  |  |  |  |  | partially rescued |
